Among the data in the SangsterLogP compilation are logP values, retold here.

For orientation: logP means a log measure of how a compound divides between an organic and an aqueous phase. Read a high logP as a more lipophilic compound.

Molecules are shown by their SMILES.

Regarding `C[C@H]1CCCC[C@@]1(c1ccccc1)N1CCCCC1`, the logP was 6.75. In the case of `c1ccc(C2(N3CCCCC3)CCCCC2)cc1` it was 5.74; in that of `CO[C@H]1CCCC[C@@]1(c1ccccc1)N1CCCCC1`, 4.73; in that of `CC(C)(C)C1CCC(c2ccccc2)(N2CCCCC2)CC1` (stereo not given), 6.67.

`C[C@@H]1CC(C)(C)C[C@](c2ccccc2)(N2CCCCC2)C1` showed a lipophilicity (logP) of 6.35.

Take `CC1CCC(c2ccccc2)(N2CCCCC2)CC1` (stereo not given): the log partition coefficient (logP) came out at 5.66. `C[C@H]1CCCC[C@@]1(c1cccs1)N1CCCCC1` gave a lipophilicity (logP) of 7.29. The result for `CO[C@@H]1CCCC[C@]1(c1cccs1)N1CCCCC1` reads 4.89; that for `C[C@H]1CCC[C@](c2ccccc2)(N2CCCCC2)C1`, 5.86; that for `c1csc(C2(N3CCCCC3)CCCCC2)c1`, 6.02.
